Common to all, as to type: cell-based
The test system of experiment [1] is A431 cells. The experiment is described as follows: In vitro tumor cell proliferation assay (Cell Titer-Glo) in A431 cells. The following applies: Homo sapiens, A-431, 72 h, A431 human epidermoid carcinoma overexpressing HER1; 72 hours exposure; read-out: IC50, activities in A431 cell lines. In outline: (§1)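 Viability after 72 h drug exposure at 37 °C was read as CellTiter-Glo ATP luminescence, giving IC50. Cells (2.5×10^3/well, RPMI + 10% FBS) were compound-treated one day post-seeding, 0.1% DMSO final: A431 overexpresses HER1, N87 overexpresses HER2 and HER1.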

Experiment [2] concerns N87. In words: In vitro tumor cell proliferation assay (Cell Titer-Glo) in N87 cells. The following applies: N87 human gastric carcinoma overexpressing HER2 and HER1; 72 hours exposure; read-out: IC50, activities in N87 cell lines. In outline:
as §1

The test system of experiment [3] is H1975 cells. The experiment is described as follows: In vitro tumor cell proliferation assay (Cell Titer-Glo) in H1975 cells. The following applies: NCI-H1975; H1975 human NSCLC expressing mutant HER1 (L858R,T790M); 72 hours exposure; read-out: IC50, activities in H 1975 cell lines. The method in brief: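 After 72 h compound exposure at 37° C (top 10 uM down to 64 pM, 0.1% DMSO), viability of EGFR L858R/T790M-mutant H1975 cells was read as ATP luminescence.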
(In general: In ATP-based viability assays light output follows the ATP content of the culture.)

A word on the IC50: it is the concentration needed to halve the response being measured. For the molecule `C#Cc1cccc(Nc2ncnc3sc4c(c23)CCN(C(=O)C#CCN(C)C)C4)c1` [Example 133, 7-[4-(dimethylamino)but-2-ynoyl]-N-(3-ethynylphenyl)-5,6,7,8-tetrahydropyrido [4′,3′:4,5]thieno[2,3-d]pyrimidin-4-amine], the IC50 is 0.2 to 1 µM in experiment [1], less than 0.2 µM in experiment [2] and 0.2 to 1 µM in experiment [3].

For the molecule `Cc1cccc(COc2ccc(Nc3ncnc4sc5c(c34)CCN(C(=O)/C=C/CN3CCCCC3)C5)cc2Cl)n1` [Example 75, N-{3-chloro-4-[(6-methylpyridin-2-yl)methoxy]phenyl}-7-[(2E)-4-piperidin-1-ylbut-2-enoyl]-5,6,7,8-tetrahydropyrido [4′,3′:4,5]thieno[2,3-d]pyrimidin-4-amine], the values for the IC50 in experiment [1], in experiment [2] and in experiment [3] were 1 to 10 µM, less than 0.2 µM and 0.2 to 1 µM, respectively.

Consider `CC(C)N(C)C/C=C/C(=O)N1CCc2c(sc3ncnc(Nc4ccc5c(ccn5Cc5ccccn5)c4)c23)C1` [Example 117, 7-{(2E)-4-[isopropyl(methyl)amino]but-2-enoyl}-N-[1-(pyridin-2-ylmethyl)-1H-indol-5-yl]-5,6,7,8-tetrahydropyrido [4′,3′:4,5]thieno[2,3-d]pyrimidin-4-amine], for which the IC50 in experiment [1] was 0.2 to 1 µM; in experiment [2], less than 0.2 µM; in experiment [3] it was less than 0.2 µM.

As to `Cc1cc(C)cc(Nc2ncnc3sc4c(c23)CCN(C(=O)/C=C/CN(C)C)C4)c1` [Example 167, 7-[(2E)-4-(dimethylamino)but-2-enoyl]-N-(3,5-dimethylphenyl)-5,6,7,8-tetrahydropyrido [4′,3′:4,5]thieno[2,3-d]pyrimidin-4-amine], the IC50 in experiment [1] was 1 to 10 µM; in experiment [2] it was less than 0.2 µM; in experiment [3], 1 to 10 µM.

As for `CC1CCCN1C/C=C/C(=O)N1CCc2c(sc3ncnc(Nc4ccc(F)c(Cl)c4)c23)C1` (stereo not drawn) [Example 59, N-(3-chloro-4-fluorophenyl)-7-[(2E)-4-(2-methylpyrrolidin-1-yl)but-2-enoyl]-5,6,7,8-tetrahydropyrido [4′,3′:4,5]thieno[2,3-d]pyrimidin-4-amine], the IC50 in experiment [1], in experiment [2] and in experiment [3] was less than 0.2 µM in each case.

On to `O=C(/C=C/CN1CCC(N2CCCCC2)CC1)N1CCc2c(sc3ncnc(Nc4ccc(F)c(Cl)c4)c23)C1` [Example 45, 7-[(2E)-4-(1,4′-bipiperidin-1-yl)but-2-enoyl]-N-(3-chloro-4-fluorophenyl)-5,6,7,8-tetrahydropyrido [4′,3′:4,5]thieno[2,3-d]pyrimidin-4-amine], for which the IC50 in experiment [1] is 1 to 10 µM; in experiment [2], less than 0.2 µM; in experiment [3] it was 0.2 to 1 µM.

With `CCN(C)C/C=C/C(=O)N1CCc2c(sc3ncnc(Nc4ccc(OCc5cccc(C)n5)c(Cl)c4)c23)C1` [Example 76, N-{3-chloro-4-[(6-methylpyridin-2-yl)methoxy]phenyl}-7-{(2E)-4-[ethyl(methyl)amino]but-2-enoyl}-5,6,7,8-tetrahydropyrido [4′,3′:4,5]thieno[2.3-d]pyrimidin-4-amine], the IC50 in experiment [1] is 1 to 10 µM; in experiment [2], less than 0.2 µM; in experiment [3], 1 to 10 µM.

With `O=C(/C=C/CN1CCCCC1)N1CCc2c(sc3ncnc(Nc4ccc5c(cnn5Cc5ccccn5)c4)c23)C1` [Example 112, 7-[(2E)-4-piperidin-1-ylbut-2-enoy]-N-[1-(pyridin-2-ylmethyl)-1H-indazol-5-yl]-5,6,7,8-tetrahydropyrido [4′,3′:4,5]thieno[2,3-d]pyrimidin-4-amine], the IC50 in experiment [1] was 0.2 to 1 µM; in experiment [2] it was less than 0.2 µM; in experiment [3] it was 0.2 to 1 µM.

On to `O=C(/C=C/CN1CCOCC1)N1CCc2c(sc3ncnc(Nc4ccc5c(ccn5Cc5ccccc5)c4)c23)C1` [Example 105, N-(1-benzyl-1H-indol-5-yl)-7-[(2E)-4-morpholin-4-ylbut-2-enoyl]-5,6,7,8-tetrahydropyrido [4′,3′:4,5]thieno[2,3-d]pyrimidin-4-amine], for which the results for the IC50 in experiment [1], in experiment [2] and in experiment [3] were less than 0.2 µM, less than 0.2 µM and 0.2 to 1 µM, respectively.

For `O=C(C#CCCN1CCCCC1)N1CCc2c(sc3ncnc(Nc4ccc(F)c(Cl)c4)c23)C1` [Example 140, N-(3-chloro-4-fluorophenyl)-7-(5-piperidin-1-ylpent-2-ynoyl)-5,6,7,8-tetrahydropyrido [4′,3′:4,5]thieno[2,3-d]pyrimidin-4-amine], the results for the IC50 in experiment [1], in experiment [2] and in experiment [3] were 0.2 to 1 µM, less than 0.2 µM and 0.2 to 1 µM, respectively.

Regarding `CC(C)N(C)C/C=C/C(=O)N1CCc2c(sc3ncnc(Nc4ccc5c(ccn5Cc5ccccc5)c4)c23)C1` [Example 118, N-(1-benzyl-1H-indol-5-yl)-7-{(2E)-4-[isopropyl(methyl)amino]but-2-enoyl}-5,6,7,8-tetrahydropyrido [4′,3′:4,5]thieno[2,3-d]pyrimidin-4-amine], the IC50 in experiment [1], in experiment [2] and in experiment [3] was less than 0.2 µM in each case.

With `CN(C/C=C/C(=O)N1CCc2c(sc3ncnc(Nc4ccc(Cl)c(Cl)c4)c23)C1)C(C)(C)C` [Example 199, 7-{(2E)-4-[tert-butyl(methyl)amino]but-2-enoyl}-N-(3,4-dichlorophenyl)-5,6,7,8-tetrahydropyrido [4′,3′:4,5]thieno[2,3-d]pyrimidin-4-amine], the IC50 in experiment [1], in experiment [2] and in experiment [3] was less than 0.2 µM in each case.

In the case of `CN(C)C/C=C/C(=O)N1CCc2c(sc3ncnc(Nc4ccc(C#N)c(Cl)c4)c23)C1` [Example 173, 2-chloro-4-({7-[(2E)-4-(dimethylamino)but-2-enoyl]-5,6,7,8-tetrahydropyrido [4′,3′:4,5]thieno[2,3-d]pyrimidin-4-yl}amino)benzonitrile], the IC50 in experiment [1] is 1 to 10 µM; in experiment [2], less than 0.2 µM; in experiment [3] it was 1 to 10 µM.

As for `Cc1cccc(COc2ccc(Nc3ncnc4sc5c(c34)CCN(C(=O)/C=C/CN3CCCC3)C5)cc2Cl)n1` [Example 78, N-{3-chloro-4-[(6-methylpyridin-2-yl)methoxy]phenyl}-7-[(2E)-4-pyrrolidin-1-ylbut-2-enoyl]-5,6,7,8-tetrahydropyrido [4′,3′:4,5]thieno[2,3-d]pyrimidin-4-amine], the half-maximal inhibitory concentration (IC50) was 1 to 10 µM in experiment [1], less than 0.2 µM in experiment [2] and 1 to 10 µM in experiment [3].

For `CN1CCN(C/C=C/C(=O)N2CCc3c(sc4ncnc(Nc5ccc(OCc6cccc(F)c6)c(Cl)c5)c34)C2)CC1` [Example 14, N-{3-chloro-4-[(3-fluorobenzyl)oxy]phenyl}-7-[(2E)-4-(4-methylpiperazin-1-yl)but-2-enoyl]-5,6,7,8-tetrahydropyrido[4′,3′:4,5]thieno[2,3-d]pyrimidin-4-amine], the results for the IC50 in experiment [1], in experiment [2] and in experiment [3] were less than 0.2 µM, less than 0.2 µM and 1 to 10 µM, respectively.

For the molecule `CN(C)C/C=C/C(=O)N1CCc2c(sc3ncnc(Nc4cccc(Br)c4)c23)C1` [Example 160, N-(3-bromophenyl)-7-[(2E)-4-(dimethylamino)but-2-enoyl]-5,6,7,8-tetrahydropyrido [4′,3′:4,5]thieno[2,3-d]pyrimidin-4-amine], the 50% inhibitory concentration (IC50) in experiment [1], in experiment [2] and in experiment [3] was less than 0.2 µM each time.

For `CN(C)C/C=C/C(=O)N1CCc2c(sc3ncnc(Nc4ccc(OCc5cccc(F)c5)c(Cl)c4)c23)C1` [Example 11, N-{3-chloro-4-[(3-fluorobenzyl)oxy]phenyl}-7-[(2E)-4-(dimethylamino)but-2-enoyl]-5,6,7,8-tetrahydropyrido[4′,3′:4,5]thieno[2,3-d]pyrimidin-4-amine], the 50% inhibitory concentration (IC50) is less than 0.2 µM in experiment [1], less than 0.2 µM in experiment [2] and 1 to 10 µM in experiment [3].

Regarding `CC1CCC(C)N1C/C=C/C(=O)N1CCc2c(sc3ncnc(Nc4ccc(OCc5ccccn5)c(Cl)c4)c23)C1` (stereo not drawn) [Example 48, N-[3-chloro-4-(pyridin-2-ylmethoxy)phenyl]-7-[(2E)-4-(2,5-dimethylpyrrolidin-1-yl)but-2-enoyl]-5,6,7,8-tetrahydropyrido [4′,3′:4,5]thieno[2,3-d]pyrimidin-4-amine], the IC50 was 1 to 10 µM in experiment [1], less than 0.2 µM in experiment [2] and 1 to 10 µM in experiment [3].

Consider `C#Cc1cccc(Nc2ncnc3sc4c(c23)CCN(C(=O)/C=C/CN2CCCC2)C4)c1` [Example 26, N-(3-ethynylphenyl)-7-[(2E)-4-pyrrolidin-1-ylbut-2-enoyl]-5,6,7,8-tetrahydropyrido [4′,3′:4,5]thieno[2,3-d]pyrimidin-4-amine], for which the IC50 in experiment [1], in experiment [2] and in experiment [3] was less than 0.2 µM each time.

In the case of `O=C(/C=C/CN1CCCC1)N1CCc2c(sc3ncnc(Nc4cccc(Br)c4)c23)C1` [Example 194, N-(3-bromophenyl)-7-[(2E)-4-pyrrolidin-1-ylbut-2-enoyl]-5,6,7,8-tetrahydropyrido [4′,3′:4,5]thieno[2,3-d]pyrimidin-4-amine], the IC50 in experiment [1], in experiment [2] and in experiment [3] was less than 0.2 µM throughout.

As to `CCN(CC)C/C=C/C(=O)N1CCc2c(sc3ncnc(Nc4ccc(OCc5cccc(C)n5)c(Cl)c4)c23)C1` [Example 73, N-{3-chloro-4-[(6-methylpyridin-2-yl)methoxy]phenyl}-7-[(2E)-4-(diethylamino)but-2-enoyl]-5,6,7,8-tetrahydropyrido [4′,3′:4,5]thieno[2,3-d]pyrimidin-4-amine], the figures for the 50% inhibitory concentration (IC50) in experiment [1], in experiment [2] and in experiment [3] were 1 to 10 µM, less than 0.2 µM and 1 to 10 µM, respectively.

For the origin of these results see US8501755B2, “Tetrahydropyridothienopyrimidine compounds and methods of use thereof” (Bayer Intellectual Property GmbH, priority 2006, dated 2013).
